Source: US10894036B2, “Use of marizomib for the treatment of central nervous system (CNS) cancers” (Celgene International II Sàrl, priority 2016, dated 2021)
“Also recorded” adds a separate entry of the source. Like-named read-outs stand apart in the source and are kept apart here.

What was measured:
[1] = Phase 1b MRZ + TMZ (+RT) in newly diagnosed G4 MG: adverse events, DLT; type: in vivo, human
Method: This is a Phase 1b, open-label, 3+3, dose-escalation followed by dose-expansion study in patients with newly diagnosed G4 MG who have not previously received any local or systemic therapy for their G4 MG. The study will examine the effect of the addition of MRZ to standard of care treatment utilizing two study arms: Concomitant Treatment in which MRZ will be combined with TMZ+RT and Adjuvant Treatment in which MRZ will be combined with TMZ. The study will be conducted in two Stages. In Stage 1 (Dose-Escalation): 3 to 6 evaluable patients per MRZ dose cohort will be enrolled in each study arm. […] A total of approximately 48 patients will be enrolled in Stages 1 and 2 combined. Patients may not be enrolled in more than 1 MRZ dose cohort per arm.
Concomitant Treatment consists of a 6 week (42 day) treatment period, followed by a 4 (−1) week break from treatments. All patients will receive intravenous (IV) MRZ infusion on Days 1, 8, 15, 29, and 36 as a 10 minute infusion. IV hydration will be given prior to the infusion. Focal RT will be administered once daily, 5 days/week, for 30 doses over 6 weeks to a total dose of 60 Gy, starting on Day 1. TMZ will be administered once daily, 7 days/week, for 6 weeks, starting on Day 1, at a dose of 75 mg/m^2. Patients who complete Concomitant Treatment may continue on to Adjuvant Treatment.
All patients will receive IV MRZ infusion on Days 1, 8, and 15 as a 10 minute infusion, in 28-day cycles. IV hydration will be given prior to the infusion. TMZ will be administered daily for 5 consecutive days, starting on Day 1 of Cycle 1 (C1D1), at a dose of 150 mg/m^2. If tolerated in Cycle 1, the TMZ dose will be increased on Day 1 of Cycle 2 (C2D1) to a dose of 200 mg/m^2.

[2] = target: T1, caspase-like (C-L) proteasome activity (Homo sapiens, UniProt P28072); assay: Proteasome inhibition in packed whole blood: C-L; type: in vivo; conditions: PWB post-Marizomib infusion (peak effect)
T1 construct: Change in proteasome activities in packed whole blood (PWB) lysates and peripheral blood mononuclear cell (PBMC) lysates; from tissue; host or cells: packed whole blood lysates of dosed glioma patients
Source text: The drugs were infused on 28-Day Cycles.
Change in proteasome activities in packed whole blood (PWB) lysates and peripheral blood mononuclear cell (PBMC) lysates, comparing pre-drug and post drug levels on Days 1, 8, and 15 of Cycle 1; Days 1 and 15 of each Cycle thereafter; and at the End-of Treatment Visit.
The laboratory correlates include assessment of the percentage inhibition of proteasome function (evaluated by measurement of CT-L, T-L and C-L activity in blood isolates such as whole blood and PBMC lysates.
PD analysis will include change in proteasome activities (whole blood lysates and PBMC lysates) by comparing pre-drug and post drug levels on Days 1, 8, and 15 (i.e., for each dose) of Cycle 1 and Days 1 and 15 (i.e., for the first and last doses) of each cycle thereafter.

proteasome = assay: Proteasome activity in monkey brain; type: in vivo; conditions: monkey (primate)
[3] = Quantitative whole body autoradiography: distribution to brain; type: in vivo, rat; conditions: rats
Source text: The definition of marizomib is understood to include marizomib as well as pharmaceutically acceptable salts, prodrugs, solvates, hydrates, tautomers, or isomers thereof. In specific embodiments, the term marizomib refers to Compound 1 or a pharmaceutically acceptable salt thereof. Without wishing to be bound by theory, marizomib is a proteasome inhibitor with unique features compared to other proteasome inhibitors. For example, marizomib inhibits all three catalytic activities of the proteasome and is capable of crossing the blood brain barrier (BBB). […] Radiolabeled marizomib has shown 30% CNS biodistribution compared with blood levels in rats. Marizomib can elicit a significant anti-tumor effect in a rodent model of malignant glioma.

[4] = tested on: human glioblastoma (GBM) cell lines; assay: Migration and matrix invasion of GBM cell lines; type: cell-based; conditions: either of two GBM lines
Source text: In vitro studies of multiple glioma cell lines were highly sensitive to MRZ. […] Treatment with MRZ decreased matrix invasion by either of two GBM lines by approximately 90%, a highly significant effect.

[5] = N = 20, related to the labelled drug
[6] = N = 20, related to the labelled drug (MRZ+TMZ = related to both)
[7] = patient 301-A202, action taken None
[8] = patient 301-C202, action taken None
[9] = MRZ 0.7 mg/m^2, C1D8 (17 May 2016)
[10] = MRZ 0.8 mg/m^2, C1D8 (17 May 2016)
[11] = MRZ 0.8 mg/m^2, C1D8 (Table 43)

Structure (SMILES): C[C@@]12OC(=O)[C@]1([C@@H](O)[C@@H]1C=CCCC1)NC(=O)[C@@H]2CCCl [marizomib]
- Discontinued, reason Adverse Event ([1]; N = 20): 1 (5.0%)
- Dose reduction, reason Adverse Event ([1]; N = 20): 1 (5.0%)
- Number of Patients with drug Discontinued ([1]; N = 20): 1 (5.0%)
- Number of Patients with ≥1 Dose Reduction ([1]; N = 20): 1 (5.0%)
- patients with MRZ-related serious adverse events ([1]; N = 20): One
- patients with fatigue Grade ≥3 ([1]; N = 20): Three
- Abdominal pain, Grade ≥3 TEAE, drug related [1, 5]: 0 (0.0%)
- Confusional state, treatment-related TEAE, number of patients [1, 5]: 3
- Confusional state, treatment-related TEAE, percent of patients [1, 5]: (15.0%)
- Constipation, treatment-related TEAE, number of patients [1, 5]: 1
- Constipation, treatment-related TEAE, percent of patients [1, 5]: (5.0%)
- Decreased appetite, treatment-related TEAE, number of patients [1, 5]: 4
- Decreased appetite, treatment-related TEAE, percent of patients [1, 5]: (20.0%)
- Dehydration, Grade ≥3 TEAE, drug related [1, 5]: 1 (5.0%)
- Diarrhoea, treatment-related TEAE, number of patients [1, 5]: 2
- Diarrhoea, treatment-related TEAE, percent of patients [1, 5]: (10.0%)
- Dizziness, treatment-related TEAE, number of patients [1, 5]: 4
- Dizziness, treatment-related TEAE, percent of patients [1, 5]: (20.0%)
- Hallucination, Grade ≥3 TEAE, drug related [1, 5]: 1 (5.0%)
- Hallucination, treatment-related TEAE, number of patients [1, 5]: 5
- Hallucination, treatment-related TEAE, percent of patients [1, 5]: (25.0%)
- Headache, Grade ≥3 TEAE, drug related [1, 5]: 0 (0.0%)
- Headache, treatment-related TEAE, number of patients [1, 5]: 3
- Headache, treatment-related TEAE, percent of patients [1, 5]: (15.0%)
- Insomnia, Grade ≥3 TEAE, drug related [1, 5]: 0 (0.0%)
- Muscular weakness, treatment-related TEAE, number of patients [1, 5]: 3
- Muscular weakness, treatment-related TEAE, percent of patients [1, 5]: (15.0%)
- Musculoskeletal pain, Grade ≥3 TEAE, drug related [1, 5]: 0 (0.0%)
- Nausea, treatment-related TEAE, number of patients [1, 5]: 9
- Nausea, treatment-related TEAE, percent of patients [1, 5]: (45.0%)
- Ovarian cyst, Grade ≥3 TEAE, drug related [1, 5]: 0 (0.0%)
- Pelvic infection, Grade ≥3 TEAE, drug related [1, 5]: 0 (0.0%)
- Platelet count decreased, Grade ≥3 TEAE, drug related [1, 5]: 1 (5.0%)
- Platelet count decreased, treatment-related TEAE, number of patients [1, 5]: 2
- Platelet count decreased, treatment-related TEAE, percent of patients [1, 5]: (10.0%)
- Rash maculo-papular, treatment-related TEAE, number of patients [1, 5]: 1
- Rash maculo-papular, treatment-related TEAE, percent of patients [1, 5]: (5.0%)
- Vomiting, Grade ≥3 TEAE, drug related [1, 5]: 1 (5.0%)
- Vomiting, treatment-related TEAE, number of patients [1, 5]: 5
- Vomiting, treatment-related TEAE, percent of patients [1, 5]: (25.0%)
- Fatigue, Grade ≥3 TEAE, drug related [1, 6]: 3 (15.0%)
- Fatigue, treatment-related TEAE, number of patients [1, 6]: 13
- Fatigue, treatment-related TEAE, percent of patients [1, 6]: (65.0%)
- Grade 2 SAEs (nausea, confusional state), MRZ-related ([1]; interim analysis, 20 patients): two
- Grade 3 SAEs (fatigue, hallucination, vomiting), MRZ-related ([1]; interim analysis, 20 patients): three
- tolerability ([1]; newly diagnosed G4 MG): well tolerated
- SAE Nephrolithiasis, relationship to drug ([1]; patient 104-C302, action taken None): Not Suspected/
- SAE Confusional state, relationship to drug [1, 7]: Suspected/
- SAE Dehydration, relationship to drug [1, 7]: Not Suspected/
- SAE Fatigue, relationship to drug [1, 7]: Suspected/
- SAE Hallucination, relationship to drug [1, 7]: Suspected/
- SAE Nausea, relationship to drug [1, 7]: Suspected/
- SAE Vomiting, relationship to drug [1, 7]: Suspected/
- SAE Ovarian cyst, relationship to drug ([1]; patient 301-C202, action taken Dose Delayed): Not Suspected/
- SAE Convulsion, relationship to drug [1, 8]: Not Suspected/
- SAE Pelvic infection, relationship to drug [1, 8]: Not Suspected/
- inhibition at […]2 ([2]; 0.55 mg/m^2): 21 ± 7.8%
- inhibition at 0.7 mg/m2 ([2]; 0.7 mg/m^2): 50.4 ± 9.1%
- inhibition at 0.8 mg/m2 ([2]; 0.8 mg/m^2): 51.9 ± 8.3%
- proteasome activity in brain (proteasome): inhibition of proteasome activity; also recorded: inhibits proteasome activity
- distribution to brain relative to plasma Cmax ([3]; quantitative whole body autoradiography): ~30%
- CNS biodistribution compared with blood levels ([3]; radiolabeled marizomib): 30%
- decrease of matrix invasion [4]: approximately 90%
- CL (IV infusion): high
- T½ (IV infusion): short
- Vd (IV infusion): large
- CLobs [9]: 162 (1) mL/min/m^2
- Cmax [9]: 65 ± 31 (3) ng/mL
- Vss obs [9]: 7377 (1) mL/m^2
- CLobs (MRZ 0.7 mg/m^2, C1D8 (Table 43)): 272 ± 166 (3) L/hr
- CLobs [10]: 3822 ± 1798 (2) mL/min/m^2
- Vss obs [10]: 12379 ± 8698 (2) mL/m^2
- CLobs [11]: 304 ± 85.0 (3) L/hr
- Vd [11]: 55.0 ± 19.7 (3) L
- Vss obs (MRZ […]^2, C1D8 (17 May 2016)): 12971 ± 7600 (3) mL/m^2
- CLobs (marizomib 0.7 mg/m^2 IV, C1D8, blood): 272 ± 166 (3) L/hr
- CLobs (marizomib 0.8 mg/m^2 IV, C1D8, blood): 304 ± 85.0 (3) L/hr
- MRZ pharmacokinetic parameters: effect of co-administration (with BEV): not affected by co-administration
